Assay results from US12448369B2 (Edgewise Therapeutics, Inc., priority 2023, dated 2025).
Blank lines part the entries; values can stand above or below the molecule they belong to.

Columns and labels:
[1] = system: Rabbit Psoas myofibrils (skeletal myosin ATPase); test: Myofibril ATPase assay, rabbit psoas (skeletal) myofibrils; assay type: biochemical; settings: rabbit psoas myofibrils
How it was run: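 Readout: A340 decline from NADH oxidation, PK/LDH-coupled to ADP release; kinetic reads over 75 min. Buffer: pCa (PIPES, CaCl2, EGTA), pH 7.0. Linear-regression slopes vs vehicle, 4PL fit; reported as concentration giving 75% (Y75) or 125% (Y125) of vehicle activity.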

[2] = system: Porcine atria myofibrils (atrial myosin ATPase); test: Myofibril ATPase assay, porcine atria myofibrils; assay type: biochemical; settings: porcine atria myofibrils
How it was run: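 Coupled PK-LDH readout, NADH loss at 340 nm, kinetic 75 min. Porcine atria myofibrils, pCa buffer (PIPES/CaCl2/EGTA, pH 7.0). Slopes (mAU/min) normalized to vehicle = 100%, 4-parameter fit; Y75 or Y125 reported.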

[3] = target: T1, Porcine ventricle myofibrils (ventricular myosin ATPase) (Sus scrofa, UniProt P79293); test: Myofibril ATPase assay, porcine ventricle myofibrils; assay type: biochemical, porcine (Yucatan minipigs); settings: porcine ventricle myofibrils
T1 construct: Myofibrils from porcine cardiac muscle was isolated from the left ventricle of Yucatan minipigs; tissue Exemplar Genetics; host or cells: left ventricle of Yucatan minipigs, myofibrils prepared in house
T1 sequence (P79293 whole entry): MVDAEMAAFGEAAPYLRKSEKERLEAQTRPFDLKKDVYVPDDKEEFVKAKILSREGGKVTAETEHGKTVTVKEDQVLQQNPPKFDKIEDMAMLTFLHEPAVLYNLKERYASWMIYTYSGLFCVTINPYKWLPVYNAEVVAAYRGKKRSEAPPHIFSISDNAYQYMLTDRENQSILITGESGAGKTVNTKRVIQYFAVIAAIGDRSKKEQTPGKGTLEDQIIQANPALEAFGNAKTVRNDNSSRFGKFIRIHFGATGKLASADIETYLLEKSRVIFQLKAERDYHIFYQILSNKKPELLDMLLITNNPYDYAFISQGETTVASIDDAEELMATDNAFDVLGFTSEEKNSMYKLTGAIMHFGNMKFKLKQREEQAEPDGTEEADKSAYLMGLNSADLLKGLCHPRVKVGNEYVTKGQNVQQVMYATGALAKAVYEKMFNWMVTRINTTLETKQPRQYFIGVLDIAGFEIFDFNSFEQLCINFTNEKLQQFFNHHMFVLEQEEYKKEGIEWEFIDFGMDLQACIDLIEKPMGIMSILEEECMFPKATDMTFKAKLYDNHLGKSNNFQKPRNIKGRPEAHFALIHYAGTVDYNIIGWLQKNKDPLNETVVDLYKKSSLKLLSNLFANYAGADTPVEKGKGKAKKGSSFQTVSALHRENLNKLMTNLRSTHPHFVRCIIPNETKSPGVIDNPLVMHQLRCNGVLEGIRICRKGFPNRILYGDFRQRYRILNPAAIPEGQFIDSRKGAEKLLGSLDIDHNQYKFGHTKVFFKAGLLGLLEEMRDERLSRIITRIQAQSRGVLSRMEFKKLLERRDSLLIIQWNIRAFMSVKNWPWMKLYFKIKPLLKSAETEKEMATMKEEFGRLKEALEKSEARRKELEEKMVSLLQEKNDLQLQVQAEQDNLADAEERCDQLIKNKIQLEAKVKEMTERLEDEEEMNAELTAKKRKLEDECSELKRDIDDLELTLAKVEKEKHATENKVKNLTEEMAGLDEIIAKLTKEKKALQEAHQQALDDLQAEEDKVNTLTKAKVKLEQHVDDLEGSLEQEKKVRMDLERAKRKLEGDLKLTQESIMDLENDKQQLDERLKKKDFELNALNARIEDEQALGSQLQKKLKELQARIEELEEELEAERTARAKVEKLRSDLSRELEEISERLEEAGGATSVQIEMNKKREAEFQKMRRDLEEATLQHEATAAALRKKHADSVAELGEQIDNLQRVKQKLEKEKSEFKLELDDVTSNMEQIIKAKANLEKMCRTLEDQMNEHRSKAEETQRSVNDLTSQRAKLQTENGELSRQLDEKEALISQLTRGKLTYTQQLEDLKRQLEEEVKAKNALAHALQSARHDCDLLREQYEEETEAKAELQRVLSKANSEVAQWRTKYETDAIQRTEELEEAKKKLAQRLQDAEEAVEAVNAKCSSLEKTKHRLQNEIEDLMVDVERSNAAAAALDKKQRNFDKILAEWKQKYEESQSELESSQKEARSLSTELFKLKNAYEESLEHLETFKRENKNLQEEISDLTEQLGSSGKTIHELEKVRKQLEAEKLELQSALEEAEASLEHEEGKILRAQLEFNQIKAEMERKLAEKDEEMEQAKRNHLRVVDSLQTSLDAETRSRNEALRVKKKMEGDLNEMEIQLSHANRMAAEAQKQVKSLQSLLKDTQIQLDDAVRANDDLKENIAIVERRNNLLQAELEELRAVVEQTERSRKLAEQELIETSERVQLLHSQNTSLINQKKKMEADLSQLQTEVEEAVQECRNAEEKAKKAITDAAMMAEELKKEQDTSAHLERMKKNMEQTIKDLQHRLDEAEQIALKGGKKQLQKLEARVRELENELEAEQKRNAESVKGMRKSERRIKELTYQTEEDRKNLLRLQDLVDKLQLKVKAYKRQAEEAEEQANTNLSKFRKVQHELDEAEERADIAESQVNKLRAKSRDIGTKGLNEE
How it was run: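 Left-ventricle myofibrils from Yucatan minipigs were tested with a PK/LDH-coupled system, following NADH loss at 340 nm every 1.5-2 min for 75 min. Slopes were normalized to vehicle wells and fit to a 4-parameter logistic model; values are Y75 (25% ATPase reduction) or Y125 concentrations.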

[4] = Y75 value (75% activity relative to no compound)
[5] = ‡ Y125 value, not a Y75 value (125% activity relative to no compound)

Compound: Cc1c(C(F)(F)C(=O)N[C@H](C)c2ncc(C#N)cc2F)c(=O)[nH]c2cccc(F)c12 (single isomer, unassigned) [compound 2538]
Skeletal EC25 ([1]; Y75 value (no ‡ mark)): 0.11 µM | Atrial EC25 ([2]; Y75 value (no ‡ mark)): 0.17 µM | Ventricular EC25 ([3]; Y75 value (no ‡ mark)): 0.18 µM

Compound: Cc1c([C@H](C)C(=O)N[C@@H](C)c2ccc(C#N)cc2F)c(=O)[nH]c2ccnc(C#N)c12 (single isomer, unassigned) [compound 174]
Skeletal EC25 ([1]; Y75 value): 0.08 µM | Atrial EC25 [2, 4]: 0.08 µM | Ventricular EC25 ([3]; Y75 value): 0.55 µM

Compound: C[C@H](NC(=O)Cc1cc2c(F)nccc2[nH]c1=O)c1ccc(F)cc1F [compound 394]
Skeletal EC25 ([1]; Y75 value): 0.03 µM | Atrial EC25 [2, 4]: 0.27 µM | Ventricular EC25 ([3]; Y75 value): 0.53 µM

Compound: Cc1nccc2[nH]c(=O)c(CC(=O)N[C@@H](C)c3ccncc3)c(C)c12 (single isomer, unassigned) [compound 334]
Skeletal EC25 ([1]; Y75 value): 100.00 µM | Atrial EC25 [2, 4]: 100.00 µM | Ventricular EC25 ([3]; Y75 value): 100.00 µM

Compound: Cc1ccc([C@@H](CO)NC(=O)Cc2c(C)c3c(C)nccc3[nH]c2=O)cc1 (single isomer, unassigned) [compound 335]
Skeletal EC25 ([1]; Y75 value): 26.39 µM | Atrial EC25 [2, 4]: 100.00 µM | Ventricular EC25 ([3]; Y75 value): 100.00 µM

Compound: Cc1nccc2[nH]c(=O)c(CC(=O)N[C@@H](C)c3cccnc3)c(C)c12 (single isomer, unassigned) [compound 323]
Skeletal EC25 ([1]; Y75 value): 100.00 µM | Atrial EC25 [2, 4]: 100.00 µM | Ventricular EC25 ([3]; Y75 value): 100.00 µM

Compound: COc1ccc([C@@H](C)NC(=O)Cc2c(C)c3c(C)nccc3[nH]c2=O)cc1 (single isomer, unassigned) [compound 286]
Skeletal EC25 ([1]; Y75 value): 8.58 µM | Atrial EC25 [2, 4]: 45.61 µM | Ventricular EC25 ([3]; Y75 value): 100.00 µM

Compound: C[C@@H](NC(=O)C(F)(F)c1cc2c(F)c(F)ccc2[nH]c1=O)c1nccc(C#N)n1 (single isomer, unassigned) [compound 2561]
Skeletal EC25 ([1]; Y75 value (no ‡ mark)): 0.25 µM | Atrial EC25 ([2]; Y75 value (no ‡ mark)): 0.23 µM | Ventricular EC25 ([3]; Y75 value (no ‡ mark)): 0.79 µM

Compound: Cc1c(CC(=O)N[C@H](C)c2ccc(S(C)(=O)=O)cc2F)c(=O)[nH]c2ccnc(C#N)c12 (single isomer, unassigned) [compound 214]
Skeletal EC25 ([1]; Y75 value): 23.30 µM | Atrial EC25 [2, 4]: 100.00 µM | Ventricular EC25 ([3]; Y75 value): 100.00 µM

Compound: Cc1c(C2(C(=O)N[C@H](C)c3ncc(C#N)cc3F)CC2)c(=O)[nH]c2cccc(C#N)c12 (single isomer, unassigned) [compound 2541]
Skeletal EC25 ([1]; Y75 value (no ‡ mark)): 0.85 µM | Atrial EC25 ([2]; Y75 value (no ‡ mark)): 0.33 µM | Ventricular EC25 ([3]; Y75 value (no ‡ mark)): 0.70 µM

Compound: Cc1nccc2[nH]c(=O)c(CC(=O)N[C@H](C)c3cccnc3)c(C)c12 (single isomer, unassigned) [compound 322]
Skeletal EC25 ([1]; Y75 value): 100.00 µM | Atrial EC25 [2, 4]: 100.00 µM | Ventricular EC25 ([3]; Y75 value): 100.00 µM

Compound: CCc1c(CC(=O)N[C@@H](C)c2ccc(F)cc2F)c(=O)[nH]c2ccccc12 [compound 126]
Skeletal EC25 ([1]; Y75 value (no ‡ mark)): 0.03 µM | Atrial EC25 ([2]; Y75 value (no ‡ mark)): 0.06 µM | Ventricular EC25 ([3]; Y75 value (no ‡ mark)): 0.49 µM

Compound: Cc1c(CC(=O)N[C@@H](C)c2ccc(F)cc2F)c(=O)[nH]c2ccc(C(F)(F)F)nc12 [compound 393]
Skeletal EC25 ([1]; Y75 value): 0.02 µM | Atrial EC25 [2, 4]: 2.46 µM | Ventricular EC25 ([3]; Y75 value): 0.42 µM

Compound: Cc1c(C(F)(F)C(=O)N[C@H](C)c2ccc(C#N)nn2)c(=O)[nH]c2ccc(F)cc12 (single isomer, unassigned) [compound 2555]
Skeletal EC25 ([1]; Y75 value (no ‡ mark)): 0.80 µM | Atrial EC25 ([2]; Y75 value (no ‡ mark)): 3.65 µM | Ventricular EC25 ([3]; Y75 value (no ‡ mark)): 6.70 µM

Compound: Cc1nccc2[nH]c(=O)c(C(F)(F)C(=O)N[C@@H](CO)c3ncc(C#N)cc3F)c(C)c12 (single isomer, unassigned) [compound 3523]
Skeletal EC25 ([1]; Y75 value): 8.73 µM | Atrial EC25 [2, 4]: 9.76 µM | Ventricular EC25 ([3]; Y75 value): 21.66 µM

Compound: C[C@H](NC(=O)C(F)(F)c1cc2cc(F)ccc2[nH]c1=O)c1cccc(C#N)n1 (single isomer, unassigned) [compound 2582]
Skeletal EC25 [1, 5]: 75.10‡ μM | Atrial EC25 [2, 5]: 100.00‡ μM | Ventricular EC25 [3, 5]: 68.39‡ μM

Compound: Cc1ccccc1[C@@H](C)NC(=O)Cc1c(C)c2c(C)nccc2[nH]c1=O (single isomer, unassigned) [compound 326]
Skeletal EC25 ([1]; Y75 value): 100.00 µM | Atrial EC25 [2, 4]: 100.00 µM | Ventricular EC25 ([3]; Y75 value): 100.00 µM

Compound: Cc1nccc2[nH]c(=O)c(CC(=O)N[C@H](CO)c3cccnc3)c(C)c12 (single isomer, unassigned) [compound 311]
Skeletal EC25 ([1]; Y75 value): 100.00 µM | Atrial EC25 [2, 4]: 100.00 µM | Ventricular EC25 ([3]; Y75 value): 100.00 µM

Compound: Cc1c(CC(=O)N[C@H](C)c2ccc(C#N)cc2F)c(=O)[nH]c2ccc(F)c(C(F)(F)F)c12 [compound 37]
Skeletal EC25 ([1]; Y75 value (no ‡ mark)): 0.02 µM | Atrial EC25 ([2]; Y75 value (no ‡ mark)): 0.04 µM | Ventricular EC25 ([3]; Y75 value (no ‡ mark)): 0.05 µM

Other lines, results leading:

Skeletal EC25 ([1]; Y75 value (no ‡ mark)): 0.12 µM | Atrial EC25 ([2]; Y75 value (no ‡ mark)): 0.07 µM | Ventricular EC25 ([3]; Y75 value (no ‡ mark)): 0.06 µM
Compound: Cc1nc(C#N)cnc1[C@@H](C)NC(=O)Cc1c(C)c2cc(F)ccc2[nH]c1=O [compound 1068]

Skeletal EC25 ([1]; Y75 value (no ‡ mark)): 100.00 µM | Atrial EC25 ([2]; Y75 value (no ‡ mark)): 100.00 µM | Ventricular EC25 ([3]; Y75 value (no ‡ mark)): 100.00 µM
Compound: Cc1c(CC(=O)N[C@H]2CCc3cc(C#N)cnc32)c(=O)[nH]c2ccc(F)cc12 [compound 1093]

Skeletal EC25 ([1]; Y75 value (no ‡ mark)): 42.66 µM | Atrial EC25 ([2]; Y75 value (no ‡ mark)): 8.47 µM | Ventricular EC25 ([3]; Y75 value (no ‡ mark)): 100.00 µM
Compound: N#Cc1cnc2c(c1)CC[C@H]2NC(=O)C1(c2cc3c(F)c(F)ccc3[nH]c2=O)CC1 (single isomer, unassigned) [compound 4823]

Skeletal EC25 ([1]; Y75 value (no ‡ mark)): 1.26 µM | Atrial EC25 ([2]; Y75 value (no ‡ mark)): 23.51 µM | Ventricular EC25 ([3]; Y75 value (no ‡ mark)): 100.00 µM
Compound: Cc1c(CC(=O)N[C@@H](CO)c2ccc(F)cc2F)c(=O)[nH]c2cccc(C#N)c12 (single isomer, unassigned) [compound 90]

Skeletal EC25 ([1]; Y75 value (no ‡ mark)): 100.00 µM | Atrial EC25 ([2]; Y75 value (no ‡ mark)): 100.00 µM | Ventricular EC25 ([3]; Y75 value (no ‡ mark)): 100.00 µM
Compound: N#Cc1ccc([C@H](CO)NC(=O)Cc2c(C3CC3)c3cc(F)ccc3[nH]c2=O)c(F)c1 [compound 76]

Skeletal EC25 ([1]; Y75 value (no ‡ mark)): 100.00 µM | Atrial EC25 ([2]; Y75 value (no ‡ mark)): 100.00 µM | Ventricular EC25 [3, 5]: 100.00‡ μM
Compound: Cc1ccc2[nH]c(=O)c(CC(=O)N[C@@H](C)c3ncc(C#N)cn3)cc2c1F (single isomer, unassigned) [compound 2014]

Skeletal EC25 ([1]; Y75 value (no ‡ mark)): 0.49 µM | Atrial EC25 ([2]; Y75 value (no ‡ mark)): 0.04 µM | Ventricular EC25 ([3]; Y75 value (no ‡ mark)): 2.76 µM
Compound: Cc1c(CC(=O)N[C@H](C)c2ncc(C#N)cn2)c(=O)[nH]c2cccc(C#N)c12 (single isomer, unassigned) [compound 2069]

Skeletal EC25 ([1]; Y75 value (no ‡ mark)): 0.04 µM | Atrial EC25 ([2]; Y75 value (no ‡ mark)): 0.12 µM | Ventricular EC25 ([3]; Y75 value (no ‡ mark)): 0.22 µM
Compound: Cc1nc(C#N)ncc1[C@H](C)NC(=O)Cc1c(C)c2cc(F)ccc2[nH]c1=O [compound 1053]

Skeletal EC25 ([1]; Y75 value (no ‡ mark)): 0.03 µM | Atrial EC25 ([2]; Y75 value (no ‡ mark)): 0.14 µM | Ventricular EC25 ([3]; Y75 value (no ‡ mark)): 0.26 µM
Compound: Cc1nc(C#N)ccc1[C@H](C)NC(=O)Cc1c(C)c2cc(F)ccc2[nH]c1=O [compound 1051]

Skeletal EC25 ([1]; Y75 value): 33.76 µM | Atrial EC25 [2, 4]: 2.40 µM | Ventricular EC25 ([3]; Y75 value): 100.00 µM
Compound: Cc1c(CC(=O)N[C@@H](CO)c2ncc(F)cc2F)c(=O)[nH]c2ccc(C#N)nc12 [compound 260]

Skeletal EC25 ([1]; Y75 value (no ‡ mark)): 0.12 µM | Atrial EC25 ([2]; Y75 value (no ‡ mark)): 2.47 µM | Ventricular EC25 ([3]; Y75 value (no ‡ mark)): 3.98 µM
Compound: C[C@H](NC(=O)Cc1c(C2CC2)c2cc(F)ccc2[nH]c1=O)c1ccc(C#N)cn1 [compound 56]

Skeletal EC25 ([1]; Y75 value): 7.04 µM | Atrial EC25 [2, 4]: 30.20 µM | Ventricular EC25 ([3]; Y75 value): 100.00 µM
Compound: Cc1c(CC(=O)N[C@H](CO)c2ccc(F)cc2F)c(=O)[nH]c2ccc(C#N)nc12 [compound 210]
